From EPA's ToxValDB 9.5 (doi:10.2903/j.efsa.2016.4432)

Columns and labels:
Anas platyrhynchos = details: short-term; oral; feed; mortality
Tagia sp. = details: chronic/long-term; growth
Rattus norvegicus = details: acute; oral; mortality
Folsomia candida = details: chronic/long-term; mortality
Daphnia magna = details: chronic/long-term; duration: 21 days; mortality
Mus musculus = details: acute; mortality
Apis mellifera = details: acute, mortality
Oryctolagus sp. = details: developmental; development
Typhlodromus pyri = assay: LR50; higher = less toxic; details: not reported; mortality

Structure (SMILES): COCc1cnc(C2=NC(C)(C(C)C)C(=O)N2)c(C(=O)O)c1 (centres undefined) [Imazamox]
- LD50 (Colinus virginianus; acute, oral, mortality): 3490 mg/kg-day
- NOAEL (Colinus virginianus; reproduction developmental): 209 mg/kg-day
- LD50 (Anas platyrhynchos): > 1930 mg/kg-day
- NOEC (Tagia sp.): 5.85 mg/kg
- LD50 (Rattus norvegicus): > 5000 mg/kg-day
- NOEC (Folsomia candida): 3.36 mg/kg
- LC50 (Cyprinodon variegatus; acute, duration: 96 hours, mortality): > 97 µg/mL
- NOEC (Cyprinodon variegatus; chronic/long-term, duration: 35 days, other): 1.22 mg/L
- NOEC (Daphnia magna): 137 mg/L
- LD50 (Mus musculus): > 5000 mg/kg-day
- LD50 (Apis mellifera; dermal): > 58 µg/piece
- LD50 (Apis mellifera; oral, unspecified): > 40 µg/piece
- NOAEL (Oryctolagus sp.): 300 mg/kg-day
- LR50 (Typhlodromus pyri): 1340 mL/ha
